Legend:
[1] = test system: Staphylococcus aureus; experiment: Decrease in Staphylococcus aureus viability on exposure to visible light in the presence of hematoporphyrin (FIG. 8); assay type: cell-based; settings: hematoporphyrin at 0.1 pg/ml and 1 μg/ml, cells in stationary or logarithmic growth phase
Protocol: FIG. 8 is a plot where the experimental results relating to the decrease in Staphylococcus aureus viability on exposure to visible light in the presence of hematoporphyrin at 0.1 pg/ml (circles) and 1 μg/ml (squares) concentrations were plotted. Bacterial cells were either in the stationary (closed symbols) or in the logarithmic (open symbols) growth phase.

[2] = test system: wild and antibiotics-resistant bacterial strains (e.g. Streptococcus and Staphylococcus strains), yeasts (e.g. Candida strains); experiment: Phototoxicity of hematoporphyrin towards bacterial strains and yeasts; assay type: cell-based

Substance: hematoporphyrin
- photosensitised inactivation of Staphylococcus aureus [1]: effectively this porphyrin photosensitises the inactivation
- phototoxicity [2]: exhibited phototoxicity
